{
  "source": "paper PMC9060980",
  "about": "(Evidence-based Complementary and Alternative Medicine : eCAM, 2022)",
  "key": {"A549 cells [1]": {"system": "A549 cells", "assay": "Flow cytometry with Annexin V/PI staining", "type": "cell-based, human", "settings": "PTX 50 nM, 24 h", "procedure": "Afterward, they were washed with PBS, counted, and adjusted to 1 × 10^6 cells/ml. Apoptosis of A549 cells was determined by flow cytometry (FC500; Beckman Coulter, Brea, CA, USA) using the Annexin V-fluorescein isothiocyanate (FITC)/propidium iodide (PI) kit (MULTISCIENCES (LIANKE) BIOTECH, CO., LTD, Hangzhou, China). Staining was performed in accordance with the method described in the manufacturer's instructions. The rate of apoptosis was analyzed using MCF software (Beckman Coulter, Brea, CA, USA)."}, "in vitro": {"assay": "in vitro", "settings": "human, Caco-2", "protocol": "(§2) The apical (AP) media volume was 500 μL and the basolateral (BL) volume was 1500 μL. […] Verapamil serves as a positive control for this experiment and was added to both compartments prior to initiation. At 30, 60, 90, and 120 min, 100 μL of media was removed from the receiver compartment followed by the addition of 100 μL of preheated buffer as replenishment."}, "A549 cells [2]": {"system": "A549 cells", "assay": "MTT assay in A549", "type": "cell-based", "settings": "Homo sapiens, 50 nM, 24 h, read-out: inhibition of the proliferation of A549 cells", "procedure": "100 μL A549 cells (2 × 10^5 cells/mL) were seeded onto a 96-well plate. […] The same volume of complete culture medium served as the negative control. Then, 20 μl MTT solution (5 mg/mL) was added to each well, and the plates were incubated for 4 h. The medium was replaced by 150 μl DMSO, which solubilized the MTT formazan salt. The absorbance of the solution was measured on a microplate reader (Vrioskan Flash, Thermo Scientific, USA) at 490 nm and the results were expressed as a percentage of the control cells."}, "P-gp": {"target": "T1, P-gp (Homo sapiens, UniProt P08183)", "T1 construct": "expressed in transfected cells; host or cells: MDCK-MDR1 (Madin-Darby canine kidney cells transfected with human MDR1)", "T1 sequence (P08183 whole entry)": "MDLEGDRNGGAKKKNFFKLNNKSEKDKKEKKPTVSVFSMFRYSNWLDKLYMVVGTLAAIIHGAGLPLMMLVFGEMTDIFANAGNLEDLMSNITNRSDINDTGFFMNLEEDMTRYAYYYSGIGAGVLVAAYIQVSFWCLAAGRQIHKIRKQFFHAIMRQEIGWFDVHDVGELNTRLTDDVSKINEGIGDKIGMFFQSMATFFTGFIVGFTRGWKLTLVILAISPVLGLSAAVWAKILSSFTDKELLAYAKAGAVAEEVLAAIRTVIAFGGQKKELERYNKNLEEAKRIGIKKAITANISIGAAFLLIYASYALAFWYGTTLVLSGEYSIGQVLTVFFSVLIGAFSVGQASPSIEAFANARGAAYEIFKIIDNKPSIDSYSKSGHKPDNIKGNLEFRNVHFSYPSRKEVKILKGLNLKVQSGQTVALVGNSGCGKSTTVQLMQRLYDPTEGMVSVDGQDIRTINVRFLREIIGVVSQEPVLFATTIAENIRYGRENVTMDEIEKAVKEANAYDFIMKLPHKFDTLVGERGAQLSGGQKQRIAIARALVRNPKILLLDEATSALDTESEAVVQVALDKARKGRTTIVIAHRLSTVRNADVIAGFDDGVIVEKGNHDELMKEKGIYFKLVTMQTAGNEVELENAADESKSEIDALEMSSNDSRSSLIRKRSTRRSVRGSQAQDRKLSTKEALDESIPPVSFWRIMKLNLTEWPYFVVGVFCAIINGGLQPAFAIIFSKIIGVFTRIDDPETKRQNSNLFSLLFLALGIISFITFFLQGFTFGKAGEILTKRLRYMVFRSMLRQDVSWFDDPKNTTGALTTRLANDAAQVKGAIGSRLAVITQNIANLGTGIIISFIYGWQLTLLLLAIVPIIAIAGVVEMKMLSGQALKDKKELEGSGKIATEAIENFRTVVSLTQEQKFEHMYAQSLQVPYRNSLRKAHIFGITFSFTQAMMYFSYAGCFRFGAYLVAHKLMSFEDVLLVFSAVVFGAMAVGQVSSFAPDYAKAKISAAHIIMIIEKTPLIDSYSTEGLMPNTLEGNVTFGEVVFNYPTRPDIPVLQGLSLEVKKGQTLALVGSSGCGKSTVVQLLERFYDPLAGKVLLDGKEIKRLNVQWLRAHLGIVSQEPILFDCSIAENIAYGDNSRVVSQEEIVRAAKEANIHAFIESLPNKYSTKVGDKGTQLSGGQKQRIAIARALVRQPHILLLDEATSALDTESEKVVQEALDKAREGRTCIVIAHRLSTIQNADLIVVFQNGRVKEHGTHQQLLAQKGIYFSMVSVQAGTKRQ", "assay": "Permeation of PTX through MDCK–MDR1 cell monolayers", "type": "in vitro ADME", "settings": "dog, PTX alone or with VRP 100 μM", "procedure": "To evaluate the inhibitory effect of flavonoids or lignoids on P-gp-induced reflux of PTX across the cultured cell monolayer, MDCK–MDR1cells were seeded on to Falcon 24-multiwell insert system at a density of 6 × 10^5 cells/mL. The detailed method is applied as previous research with some modification (such as time points of sampling including 0, 30, 60, 90, 120 min are selected, and C0 of PTX in the apical compartment is 1 μg/mL).\nThe apical (AP) media volume was 500 μL and the basolateral (BL) volume was 1500 μL."}, "[3]": {"assay": "Plasma concentration of paclitaxel in A549 xenograft mice", "type": "in vivo", "settings": "BALB/c, mouse, intraperitoneal, 10 mg/kg, plasma concentration of paclitaxel […] after administration, PTX 10 mg/kg I.P., PTX + WAB 10 + 50 mg/kg I.G., Day 34, mean", "protocol": "Tumor-bearing mice were weighed using an electronic scale and tumor sizes were surveyed with vernier calipers, and these procedures were conducted twice a week. Tumor weight was calculated from the tumor sizes according to the reported formula [30]: tumor volume (mm^3) = (tumor length in mm) × (tumor width in mm)^2/2. One and a half hours after the last administration on Day 34, all mice were sacrificed after blood was collected from the orbital sockets using fine capillaries. […] The serum was separated and analyzed by method described previously [7]."}, "[4]": {"assay": "Mortality, survival, side effect and body weight of A549 xenograft-bearing mice", "procedure": "(§1) Tumor-bearing mice were weighed using an electronic scale and tumor sizes were surveyed with vernier calipers, and these procedures were conducted twice a week. Tumor weight was calculated from the tumor sizes according to the reported formula [30]: tumor volume (mm^3) = (tumor length in mm) × (tumor width in mm)^2/2. One and a half hours after the last administration on Day 34, all mice were sacrificed after blood was collected from the orbital sockets using fine capillaries. […] The serum was separated and analyzed by method described previously."}, "A549 tumor": {"system": "A549 tumor", "type": "in vivo, BALB/c mice", "parameters": "tumor weight: unit not given beside the values", "procedure": "as §1"}, "[5]": {"system": "BCL-2 family proteins' expressions in A549", "assay": "Western blotting of BCL-2 family proteins", "type": "cell-based, human", "settings": "PTX 50 nM, 24 h", "procedure": "Total cell extracts were lysed in lysis buffer (Ripa, Solarbio, China), and protein extract (60 μg) was added into each well of 10% gel and separated through gel electrophoresis. Gels were soaked in transfer buffer (30 mM glycine, 16 mM Tris-HCl, and 20% methanol) and proteins in the gels were then blotted to polyvinylidene difluoride (PVDF) membranes. Nonfat dry milk in PBST (137 mM NaCl, […], 100 mM Na2HPO4, 20 mM KH2PO4 0.05% tween 20, pH 7.4) was used for blocking nonspecific binding sites. The polyvinylidene difluoride membranes were then incubated with primary antibodies: anti-BCL-2 mAb (1 : 1000), anti-BAK mAB (1 : 2000), anti-MCL-1 pAb (1 : 3000), anti-pMCL-1 mAb (1 : 2000), anti-cyclinB1 mAb (1 : 1000), or anti-b-actin mAb (1 : 5000). Then, secondary antibodies (anti-mouse 1 : 5000, anti-rabbit–1:5000) were applied to the membranes. The ECL western blotting detection kit was used for detecting protein bands in the membranes. Protein bands were detected using the ECL Plus Kit (Huaan biotech, Hangzhou, China), imaged on Tanon 2000. Densitometry analysis was performed using ImageJ software to calculate the relative expression change after normalizing with β-actin."}, "Caco-2 cells": {"system": "Caco-2 cells", "assay": "Caco-2 bidirectional transport of paclitaxel", "settings": "paclitaxel 1 μg/mL alone or with verapamil 100 μM", "protocol": "as §2"}, "[6]": {"settings": "PTX 10 mg/kg I.P., PTX + WAB 10 + 50 mg/kg I.G."}, "[7]": {"settings": "PTX 10 mg/kg I.P., PTX + WAB 10 + 50 mg/kg I.G., Day 34"}},
  "note": "Where “and” joins values, the source holds several entries; their conditions need not be identical. Equal values may be shown once. Read-outs that look alike come from different tables or passages of the source.",
  "data": [
    {"molecule": "CC(=O)O[C@H]1C(=O)[C@@]2(C)[C@H]([C@H](OC(=O)c3ccccc3)[C@]3(O)C[C@H](OC(=O)[C@H](O)[C@@H](NC(=O)c4ccccc4)c4ccccc4)C(C)=C1C3(C)C)[C@]1(OC(C)=O)CO[C@@H]1C[C@@H]2O", "note": "[Paclitaxel]", "values": [
      {"measurement": "percentage of cells Annexin V positive", "setting": "A549 cells [1]", "value": "approx. 16.3%"},
      {"measurement": "apoptosis", "setting": "A549 cells [1]; with or without HDS-2 80 μg/mL", "value": 17.5, "unit": "%"},
      {"measurement": "percentage of cells PI positive (necrosis)", "setting": "A549 cells [1]; with or without HDS-2 80 μg/mL", "value": "approx. 22.8%"},
      {"measurement": "Papp A→B at 120 min, 1 μg/mL", "setting": "in vitro", "value": 0.252, "unit": "×10⁻⁶ cm/s"},
      {"measurement": "Papp B→A at 120 min, 1 μg/mL", "setting": "in vitro", "value": 75.3, "unit": "×10⁻⁶ cm/s"},
      {"measurement": "inhibition at 0.05 µM", "setting": "A549 cells [2]", "value": "~28", "unit": "%"},
      {"measurement": "Papp B→A at 120 min, 1 μg/mL", "setting": "P-gp", "value": "86.4 ± 14.1", "unit": "×10⁻⁶ cm/s"},
      {"measurement": "concentration at […]", "setting": "[3]", "value": 201, "unit": "ng/mL"},
      {"measurement": "Survival rate", "setting": "[4]; [6]", "value": 66.7, "unit": "%"},
      {"measurement": "Mortality (dead mice)", "setting": "[4]; [7]", "value": 4},
      {"measurement": "mortality %", "setting": "[4]; PTX group, PTX+WAB 10+50 mg/kg, Day 34", "value": 33.33, "unit": "%"},
      {"measurement": "tumor volume, group mean", "setting": "A549 tumor; Day 1, PTX 10 mg/kg I.P., PTX+WAB 10+50 mg/kg I.G.", "value": 80.63, "unit": "mm^3"},
      {"measurement": "tumor volume, group mean", "setting": "A549 tumor; Day 4, PTX 10 mg/kg I.P., PTX+WAB 10+50 mg/kg I.G.", "value": 88.36, "unit": "mm^3"},
      {"measurement": "tumor volume, group mean", "setting": "A549 tumor; Day 7, PTX 10 mg/kg I.P., PTX+WAB 10+50 mg/kg I.G.", "value": 123.87, "unit": "mm^3"},
      {"measurement": "tumor volume, group mean", "setting": "A549 tumor; Day 10, PTX 10 mg/kg I.P., PTX+WAB 10+50 mg/kg I.G.", "value": 140.25, "unit": "mm^3"},
      {"measurement": "tumor volume, group mean", "setting": "A549 tumor; Day 13, PTX 10 mg/kg I.P., PTX+WAB 10+50 mg/kg I.G.", "value": 170.16, "unit": "mm^3"},
      {"measurement": "tumor volume, group mean", "setting": "A549 tumor; Day 16, PTX 10 mg/kg I.P., PTX+WAB 10+50 mg/kg I.G.", "value": 131.58, "unit": "mm^3"},
      {"measurement": "tumor volume, group mean", "setting": "A549 tumor; Day 19, PTX 10 mg/kg I.P., PTX+WAB 10+50 mg/kg I.G.", "value": 181.34, "unit": "mm^3"},
      {"measurement": "tumor volume, group mean", "setting": "A549 tumor; Day 22, PTX 10 mg/kg I.P., PTX+WAB 10+50 mg/kg I.G.", "value": 174.31, "unit": "mm^3"},
      {"measurement": "tumor volume, group mean", "setting": "A549 tumor; Day 25, PTX 10 mg/kg I.P., PTX+WAB 10+50 mg/kg I.G.", "value": 203.28, "unit": "mm^3"},
      {"measurement": "tumor volume, group mean", "setting": "A549 tumor; Day 28, PTX 10 mg/kg I.P., PTX+WAB 10+50 mg/kg I.G.", "value": 256.78, "unit": "mm^3"},
      {"measurement": "tumor volume, group mean", "setting": "A549 tumor; Day 31, PTX 10 mg/kg I.P., PTX+WAB 10+50 mg/kg I.G.", "value": 273.56, "unit": "mm^3"},
      {"measurement": "tumor volume, group mean", "setting": "A549 tumor; Day 34, PTX 10 mg/kg I.P., PTX+WAB 10+50 mg/kg I.G.", "value": 263.74, "unit": "mm^3"},
      {"measurement": "activity against A549 tumor growth", "setting": "A549 tumor; [6]", "value": "weak inhibitory activity against A549"},
      {"measurement": "Inhibition rate", "setting": "A549 tumor; [7]", "value": "38.60 ± 64.87", "unit": "%"},
      {"measurement": "tumor weight", "setting": "A549 tumor; PTX 10 mg/kg I.P., PTX+WAB 10+50 mg/kg I.G., Day 34, individual animals, listed as PTX", "value": "0.2469 and 0.1592 and 0.156 and 0.1923 and 0.1802 and 0.1183 and 0.1699"},
      {"measurement": "Mean (growth factor)", "setting": "A549 tumor; PTX 10 mg/kg, PTX+WAB 10+50 mg/kg, from tumor size Day 34/Day 1", "value": 13.43},
      {"measurement": "expressions of cyclinB1, BAK, BCL-2, MCL-1, and pMCL-1", "setting": "[5]", "value": "significantly upregulated"},
      {"measurement": "Papp AP–BL of paclitaxel", "setting": "Caco-2 cells", "value": "0.25 ± 0.43 ×10^−6 cm/s"},
      {"measurement": "Papp BL–AP of paclitaxel", "setting": "Caco-2 cells", "value": "75.26 ± 7.43 ×10^−6 cm/s"}
    ]}
  ]
}
